Data published in patent US11021444B2, “Antiviral compounds” (priority 2013, dated 2021).
Read-outs that look alike come from different tables or passages of the source.

Experiments:
recombinant RSV complex = recombinant RSV complex (Human respiratory syncytial virus A, UniProt P28887); test: RSV Polymerase Inhibition Assay; format: biochemical
Procedure, shortened: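 10 nM recombinant RSV polymerase complex in Tris-HCl pH 7.5, 6 mM MgCl2 with RNA oligonucleotide template and radionucleotides, incubated 2 h at 30 °C with increasing inhibitor concentrations. Reaction stopped with EDTA; radiolabeled RNA product counted by scintillation.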

RSV replicon = test: microbe, parasite or virus in culture; format: cell-based; conditions: human respiratory syncytial virus, read-out: EC50, the concentration of the drug required for reducing RSV replicon RNA by 50%
[1] = Cytotoxicity Determination (CCK-8, without addition of virus); format: cell-based; conditions: human, 50% cytotoxicity concentration (CC50)
Procedure, shortened: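 HEp-2 cells were seeded at 1,500 cells/well one day before compound addition. Compounds were tested without virus in duplicate over 7 points from 100 μM in 1/2 steps, with 1% final DMSO, 5 days at 37 °C, 5% CO2. Viability was read by CCK-8 after 3-4 hours.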

[2] = tested on: Respiratory Syncytial Virus (RSV) long strain; test: microbe, parasite or virus in culture; format: cell-based; conditions: human respiratory syncytial virus, HEp-2, 120 h, read-out: 50% effective concentration (EC50), HEp-2 cells infected with RSV long strain, 5 days, CCK-8 readout; Tables A and B list compounds by EC50 band
Procedure, shortened: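 HEp-2 cells infected with 100 TCID50 virus per well, compounds in duplicate, 9-point 1/3 dilutions from 100 μM or 1 μM, 1% DMSO. After 5 days at 37 °C, cell viability (CPE protection) read by CCK-8 absorbance at 450 nm, 630 nm background.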

Chain of recombinant RSV complex (P28887 whole entry): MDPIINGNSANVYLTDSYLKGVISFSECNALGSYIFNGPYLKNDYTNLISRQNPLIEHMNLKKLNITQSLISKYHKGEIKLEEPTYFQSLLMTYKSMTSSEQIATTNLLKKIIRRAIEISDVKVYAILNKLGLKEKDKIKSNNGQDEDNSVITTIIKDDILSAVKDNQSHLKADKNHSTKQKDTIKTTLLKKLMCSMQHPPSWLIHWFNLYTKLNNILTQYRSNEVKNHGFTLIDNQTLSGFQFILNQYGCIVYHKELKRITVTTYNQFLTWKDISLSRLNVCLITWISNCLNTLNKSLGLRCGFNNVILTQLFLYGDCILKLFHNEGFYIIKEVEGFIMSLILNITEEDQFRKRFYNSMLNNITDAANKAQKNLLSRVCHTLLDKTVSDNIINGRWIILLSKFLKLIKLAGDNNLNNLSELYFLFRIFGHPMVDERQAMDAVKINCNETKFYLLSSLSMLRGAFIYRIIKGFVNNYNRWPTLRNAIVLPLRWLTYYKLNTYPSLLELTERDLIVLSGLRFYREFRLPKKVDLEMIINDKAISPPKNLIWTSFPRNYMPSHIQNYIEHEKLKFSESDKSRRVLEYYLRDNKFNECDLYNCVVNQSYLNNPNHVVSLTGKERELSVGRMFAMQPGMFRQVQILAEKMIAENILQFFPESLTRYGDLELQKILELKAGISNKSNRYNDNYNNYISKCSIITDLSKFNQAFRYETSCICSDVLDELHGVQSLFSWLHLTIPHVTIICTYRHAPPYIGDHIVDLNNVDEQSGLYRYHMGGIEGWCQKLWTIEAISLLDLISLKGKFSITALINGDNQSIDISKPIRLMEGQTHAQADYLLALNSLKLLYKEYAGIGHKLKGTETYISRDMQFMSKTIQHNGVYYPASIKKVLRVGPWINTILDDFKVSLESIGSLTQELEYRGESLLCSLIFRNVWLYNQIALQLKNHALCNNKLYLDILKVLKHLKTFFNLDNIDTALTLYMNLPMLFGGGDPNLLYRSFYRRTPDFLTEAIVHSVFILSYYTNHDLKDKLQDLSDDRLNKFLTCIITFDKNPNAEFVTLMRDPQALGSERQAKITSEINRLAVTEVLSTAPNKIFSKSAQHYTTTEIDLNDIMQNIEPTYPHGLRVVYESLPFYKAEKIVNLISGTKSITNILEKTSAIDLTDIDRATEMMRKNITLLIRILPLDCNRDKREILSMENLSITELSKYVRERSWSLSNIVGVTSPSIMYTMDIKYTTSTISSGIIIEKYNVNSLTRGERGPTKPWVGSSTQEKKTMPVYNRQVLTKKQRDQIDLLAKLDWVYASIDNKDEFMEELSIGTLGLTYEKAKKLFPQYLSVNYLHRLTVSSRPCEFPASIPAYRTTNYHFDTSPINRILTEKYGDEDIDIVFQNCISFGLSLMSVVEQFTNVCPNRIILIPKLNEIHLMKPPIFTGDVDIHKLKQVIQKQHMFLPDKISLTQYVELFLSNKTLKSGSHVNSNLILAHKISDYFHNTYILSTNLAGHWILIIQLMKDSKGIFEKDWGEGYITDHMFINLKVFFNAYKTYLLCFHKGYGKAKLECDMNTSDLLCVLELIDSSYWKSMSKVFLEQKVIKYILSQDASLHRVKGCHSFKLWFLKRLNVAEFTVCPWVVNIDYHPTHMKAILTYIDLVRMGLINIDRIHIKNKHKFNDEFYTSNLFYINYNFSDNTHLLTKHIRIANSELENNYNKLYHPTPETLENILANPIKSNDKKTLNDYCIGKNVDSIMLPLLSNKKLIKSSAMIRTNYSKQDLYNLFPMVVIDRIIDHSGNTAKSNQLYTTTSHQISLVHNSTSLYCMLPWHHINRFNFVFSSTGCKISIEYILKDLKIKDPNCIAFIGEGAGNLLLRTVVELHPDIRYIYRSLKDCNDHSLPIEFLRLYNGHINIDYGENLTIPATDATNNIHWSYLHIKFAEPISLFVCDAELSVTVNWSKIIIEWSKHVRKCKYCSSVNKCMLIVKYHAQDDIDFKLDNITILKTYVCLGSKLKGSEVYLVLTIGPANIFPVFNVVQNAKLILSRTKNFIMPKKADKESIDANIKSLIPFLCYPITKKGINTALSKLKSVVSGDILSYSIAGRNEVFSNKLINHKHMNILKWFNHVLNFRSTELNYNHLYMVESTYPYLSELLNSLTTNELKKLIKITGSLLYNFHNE
Chain of recombinant RSV complex (P03421 whole entry, further chain): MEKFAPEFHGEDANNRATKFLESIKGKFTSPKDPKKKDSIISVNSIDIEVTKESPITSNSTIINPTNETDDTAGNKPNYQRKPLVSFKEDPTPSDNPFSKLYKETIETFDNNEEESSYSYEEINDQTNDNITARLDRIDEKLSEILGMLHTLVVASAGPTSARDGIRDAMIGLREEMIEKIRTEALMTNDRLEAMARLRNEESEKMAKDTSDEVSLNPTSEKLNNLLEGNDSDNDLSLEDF

| Compound | IC50 (recombinant RSV complex) [µM] | EC50 (RSV replicon) [µM] | IC50 (recombinant RSV complex; read-out: IC50 (compound concentration at which the enzyme-catalyzed rate was reduced by 50%), 10 nM recombinant RSV complex, 2 h at 30° C., Tables E, F and G list compounds by IC50 band) [µM] | CC50 at 5 days [1] [µM] | EC50 [2] [µM] |
| --- | --- | --- | --- | --- | --- |
| COc1cc(C(=O)NCC(C)(O)c2ccc(OC)c(-c3ccc(F)c(Cl)c3)n2)ccc1-n1cccn1 (stereo not shown) [Compound 128] | < 1 | 1 to 50 |  |  |  |
| COc1cc(C(=O)NCC(C)(O)c2ccc(OC)c(-c3ccc(F)c(Cl)c3)n2)ccc1-c1ccncc1 (stereo not shown) [Compound 147] | < 1 | < 1 |  |  |  |
| COc1cc(C(=O)NCC(O)(c2cc3c(c(-c4ccc(F)c(Cl)c4)n2)OCC=C3)C2CC2)ccc1OCCO (stereo not shown) [Compound 306] | < 1 | < 1 |  |  |  |
| COc1cc(C(=O)NCC(C)(O)c2cc3c(c(-c4ccc(F)c(Cl)c4)n2)OCC=C3)ccc1OCCO (stereo not shown) [Compound 307] | < 1 | < 1 |  |  |  |
| COc1cc(C(=O)NCC(=O)c2cc3c(c(-c4ccc(F)c(Cl)c4)n2)OCCC3(C)C)ccc1OCCO [Compound 311] | < 1 | < 1 |  |  |  |
| COc1ccc(C(=O)NCC(O)(c2cc(C(C)(C)N)cc(-c3ccc(F)c(Cl)c3)n2)C(F)(F)F)cc1OC (stereo not shown) [Compound 316] | < 1 | < 1 |  |  |  |
| COc1cc(C(=O)NCC(O)(c2cc(C(C)(C)N)cc(-c3ccc(F)cc3)n2)C(F)(F)F)ccc1O[C@H]1CCNC1=O (stereo partly shown) [Compound 319] | < 1 | < 1 |  |  |  |
| COc1cc(C(=O)NCC(O)(c2ccc(OC)c(-c3ccc(F)c(Cl)c3)n2)C(F)(F)F)ccc1OCc1ccn[nH]1 (stereo not shown) [Compound 332] | < 1 | 1 to 50 |  |  |  |
| COc1cc(C(=O)NCC(O)(c2ccc(OC)c(-c3ccc(F)cc3)n2)C(F)(F)F)ccc1OCC(F)F (stereo not shown) [Compound 341] |  | < 1 | < 1 |  |  |
| COc1cc(C(=O)NCC(O)(c2cc(C3(NC(C)=O)CCC3)cc(-c3ccc(F)c(Cl)c3)n2)C(F)(F)F)ccc1OC1CC1 (stereo not shown) [Compound 354] | < 1 | < 1 |  |  |  |
| COc1cc(C(=O)NCC(O)(c2cc(C3(N)CCC3)cc(-c3ccc(F)c(Cl)c3)n2)C(F)(F)F)ccc1OC1CC1 (stereo not shown) [Compound 355] | < 1 | < 1 |  |  |  |
| COc1cc(C(=O)NCC(C)(OC)c2ccc(OC)c(-c3ccc(F)c(Cl)c3)n2)ccc1OCC(F)F (stereo not shown) [Compound 375] | < 1 | 1 to 50 |  |  |  |
| COc1cc(C(=O)NCC(C)(OC)c2ccc(OC)c(-c3ccc(F)c(Cl)c3)n2)ccc1OC1CC1 (stereo not shown) [Compound 376] | < 1 | < 1 |  |  |  |
| COc1cc(C(=O)NCC(O)(c2ccc(OC)c(-c3ccc(F)c(Cl)c3)n2)C(F)(F)F)ccc1OC(C)C (stereo not shown) [Compound 378] | < 1 | 1 to 50 |  |  |  |
| COc1cc(C(=O)NCC(C)(O)c2ccc(OC)c(-c3ccc(F)c(Cl)c3)n2)ccc1OCS(C)(=O)=O (stereo not shown) [Compound 379] | < 1 | < 1 |  |  |  |
| COc1ccc(C(O)(CNC(=O)c2ccc(OCC(N)=O)c(F)c2)C(F)(F)F)nc1-c1ccc(F)c(Cl)c1 (stereo not shown) [Compound 380] | < 1 | < 1 |  |  |  |
| CCNCc1cc(-c2ccc(F)cc2)nc(C(O)(CNC(=O)c2ccc(OC3CC3)c(OC)c2)C(F)(F)F)c1 (stereo not shown) [Compound 389] | < 1 | < 1 |  |  |  |
| CCNC(C)(C)c1cc(-c2ccc(F)c(Cl)c2)nc(C(O)(CNC(=O)c2ccc(OC3CC3)c(OC)c2)C(F)(F)F)c1 (stereo not shown) [Compound 390] | < 1 | < 1 |  |  |  |
| CNC(C)(C)c1cc(-c2ccc(F)cc2)nc(C(O)(CNC(=O)c2ccc(OC3CC3)c(OC)c2)C(F)(F)F)c1 (stereo not shown) [Compound 393] | < 1 | < 1 |  |  |  |
| COc1cc(C(=O)NCC(O)(c2cc(C(C)(C)N)cc(-c3ccc(F)c(Cl)c3)n2)C(F)(F)F)ccc1OCC(F)F (stereo not shown) [Compound 395] | < 1 | < 1 |  |  |  |
| COc1cc(C(=O)NCC(O)(c2cc(C(C)(C)CN)cc(-c3ccc(F)c(Cl)c3)n2)C(F)(F)F)ccc1OC1CC1 (stereo not shown) [Compound 397] | < 1 | < 1 |  |  |  |
| COc1cc(C(=O)NCC(O)(c2ccc(OC)c(-c3ccc(F)c(Cl)c3)n2)C2CC2)ccc1OCC(N)=O (stereo not shown) [Compound 398] | < 1 | < 1 |  |  |  |
| COc1cc(C(=O)NCC(O)(c2cc(C3(C)CCN(C)C3)cc(-c3ccc(F)cc3)n2)C(F)(F)F)ccc1OC1CC1 (stereo not shown) [Compound 506] | < 1 | < 1 |  |  |  |
| COc1cc(C(=O)NCC(O)(c2cc3c(c(-c4ccc(F)cc4)n2)OCC3(C)N)C(F)(F)F)ccc1OC1CC1 (stereo not shown) [Compound 509] | < 1 | < 1 |  |  |  |

| Compound | IC50 (recombinant RSV complex) [µM] | EC50 (RSV replicon) [µM] | IC50 (recombinant RSV complex; read-out: IC50 (compound concentration at which the enzyme-catalyzed rate was reduced by 50%), 10 nM recombinant RSV complex, 2 h at 30° C., Tables E, F and G list compounds by IC50 band) [µM] | CC50 at 5 days [1] [µM] | EC50 [2] [µM] |
| --- | --- | --- | --- | --- | --- |
| COc1cc(C(=O)NCC(O)(c2cc(C(C)(C)N)cc(-c3ccc(C(F)(F)F)cc3)n2)C(F)(F)F)ccc1OC1CC1 (stereo not shown) [Compound 523] | < 1 | < 1 |  |  |  |
| COc1cc(C(=O)NCC(O)(c2cc(C(C)(C)N)cc(-c3ccc(F)c(Br)c3)n2)C(F)(F)F)ccc1OC1CC1 (stereo not shown) [Compound 524] | < 1 | < 1 |  |  |  |
| COc1cc(C(=O)NCC(O)(c2cc(C3(O)CNC3)cc(-c3ccc(F)c(Cl)c3)n2)C(F)(F)F)ccc1OC1CC1 (stereo not shown) [Compound 555] | < 1 | < 1 |  |  |  |
| COc1cc(C(=O)NCC(O)(c2cc(C3(C)CC(O)C3)cc(-c3ccc(F)c(Cl)c3)n2)C(F)(F)F)ccc1OC1CC1 (stereo not shown) [Compound 564] | < 10 | < 1 |  |  |  |
| COc1cc(C(=O)NCC(O)(c2cc(C(C)(C)N)cc(-c3ccc(Cl)nc3)n2)C(F)(F)F)ccc1OC1CC1 (stereo not shown) [Compound 567] | < 1 | < 1 |  |  |  |
| COc1cc(C(=O)NCC(O)(c2cc(C(C)(C)N)cc(-c3ccc(F)c(Cl)c3)n2)C(F)(F)F)ccc1OCC(C)OC(=O)OC(C)C (stereo not shown) [Compound 572] | < 10 | < 1 |  |  |  |
| COc1cc(C(=O)NCC(O)(c2cc(C3CCNCC3)cc(-c3ccc(F)c(Cl)c3)n2)C(F)(F)F)ccc1OC1CC1 (stereo not shown) [Compound 576] | < 1 | < 1 |  |  |  |
| COc1cc(C(=O)NCC(O)(c2cc(C(C)(C)NC3COC3)cc(-c3ccc(F)cc3)n2)C(F)(F)F)ccc1OC1CC1 (stereo not shown) [Compound 581] | < 1 | < 1 |  |  |  |
| COc1cc(C(=O)NCC(O)(c2cc(C3(C)CN(C(C)C)C3)cc(-c3ccc(F)cc3)n2)C(F)(F)F)ccc1OCCO (stereo not shown) [Compound 584] | < 1 | < 1 |  |  |  |
| COc1cc(C(=O)NCC(O)(c2cc(C(C)(N)CO)cc(-c3ccc(F)cc3)n2)C(F)(F)F)ccc1OC1CC1 (stereo not shown) [Compound 600] | < 1 | < 1 |  |  |  |
| COc1cc(C(=O)NCC(O)(c2cc(C(C)(C)NC(C)=O)cc(-c3ccc(F)c(Cl)c3)n2)C(F)(F)F)ccc1OC[C@@H](C)O (stereo partly shown) [Compound 601] | < 1 | < 1 |  |  |  |
| COc1cc(C(=O)NCC(C)(O)c2cc(C(C)(C)N)cc(-c3ccc(F)cc3)n2)ccc1OCC(N)=O (stereo not shown) [Compound 602] | < 1 | < 1 |  |  |  |
| COc1cc(C(=O)NCC(O)(c2cc([C@]3(C)CCN3)cc(-c3ccc(F)c(Cl)c3)n2)C(F)(F)F)ccc1OC1CC1 (stereo partly shown) [Compound 603] | < 1 | < 1 |  |  |  |
| COC(=O)C(C)(N)c1cc(-c2ccc(F)cc2)nc(C(O)(CNC(=O)c2ccc(OC3CC3)c(OC)c2)C(F)(F)F)c1 (stereo not shown) [Compound 622] | < 1 | < 1 |  |  |  |
| COc1cc(C(=O)NC[C@](O)(c2cc3c(c(-c4ccc(F)cc4)n2)OC[C@@]3(C)N)C(F)(F)F)ccc1OC[C@@H](C)O [Compound 632] | < 1 |  |  | 10 to 100 | < 1 |
| COc1cc(C(=O)NC[C@@](O)(c2cc3c(c(-c4ccc(F)cc4)n2)OCC3(C)CN)C(F)(F)F)ccc1OCCO (stereo partly shown) [Compound 633a] | < 1 |  |  | 10 to 100 | 1 to 50 |
| COc1cc(C(=O)NCC(O)(c2cc(C(C)(C)N)cc(-c3ccc(F)cc3)n2)C(F)(F)F)ccc1OC/C(N)=N/O (stereo not shown) [Compound 636] | < 1 | < 1 |  |  |  |
| CC(C)(N)c1cc(-c2ccc(F)cc2)nc(C(O)(CNC(=O)c2ccc3c(c2)CNC(=O)N3)C(F)(F)F)c1 (stereo not shown) [Compound 639] | < 1 |  |  | 10 to 100 | 1 to 50 |
| COc1cc(C(=O)NCC(F)(c2cc(C(C)(C)N)cc(-c3ccc(F)c(Cl)c3)n2)C(F)(F)F)ccc1OC1CC1 (stereo not shown) [Compound 641] | < 1 | < 1 |  |  |  |
| COc1cc(C(=O)NCC(O)(c2cc3c(c(-c4c[nH]c5c(F)cccc45)n2)OCC3(C)N)C(F)(F)F)ccc1OCCO (stereo not shown) [Compound 647] | < 1 | < 1 |  |  |  |
| COc1cc(C(=O)NC[C@](O)(c2cc3c(c(-c4ccc(F)cc4)n2)OCC3(N)CO)C(F)(F)F)ccc1OC1CC1 (stereo partly shown) [Compound 654] | < 1 |  |  | 10 to 100 | < 1 |
| COc1cc(C(=O)NCC(O)(c2cc3c(c(-c4ccc(Cl)c(Cl)c4)n2)OCC3(C)N)C(F)(F)F)ccc1OCCO (stereo not shown) [Compound 662] | < 1 |  |  | 10 to 100 | < 1 |
| COc1cc(C(=O)NCC(O)(c2cc3c(c(-c4ccc(Cl)c(F)c4)n2)OCC3(C)N)C(F)(F)F)ccc1CO[C@@H](C)O (stereo partly shown) [Compound 666] | < 1 |  |  | 10 to 100 | < 1 |
| COc1cc(C(=O)NCC(O)(c2cc3c(c(-c4ccc(C(F)(F)F)nc4)n2)OCC3(C)N)C(F)(F)F)ccc1OCCO (stereo not shown) [Compound 673] | < 10 |  |  | > 100 | 1 to 50 |
